Data taken from patent US9573954B2, “Pyrazolopyrimidine compounds” (University Health Network, priority 2012, dated 2017).
Where two headings read alike, the source gives them in different places.

What was measured:
[1] = system: colon cancer cells (HCT116); assay: Cancer cell line growth inhibition, Sulforhodamine B assay, HCT116; type: cell-based; details: Homo sapiens, HCT-116, HCT116 colon cancer cell line; read-out: Cancer Cell Line GI50 Range HCT116
Description: (§1) Breast cancer cells (MDA-MB-231 and MDA-MB-468), colon cancer cells (HCT116) and ovarian cancer cells (PA-1 and OVCAR-3) were seeded (1000 to 4000 in 80 μl per well depending on the cell growth rate) into 96 well plates 24 hours before compound overlay. Compounds were prepared as 10 mM stock solutions in 100% DMSO which were diluted with DMEM (Dulbecco's Modified Eagle's Medium) cell growth Medium (Invitrogen, Burlington, ON, Canada) containing 10% FBS (Fetal Bovine Serum) to concentrations ranging from 50 nM to 250 μM. Aliquots (20 μl) from each concentration were overlaid to 80 μl of the pre-seeded cells in the 96 well plates to make final concentrations of 10 nM to 50 μM. The cells were cultured for 5 days before the Sulforhodamine B assay (SRB) was performed to determine the compound's cell growth inhibition activity.
(§2) Sulforhodamine B (purchased from Sigma, Oakville, ON, Canada) is a water-soluble dye that binds to the basic amino acids of the cellular proteins. Thus, colorimetric measurement of the bound dye provides an estimate of the total protein mass that is related to the cell number. the cells are fixed in situ by gently aspirating off the culture media and adding 50 μl ice cold 10% Trichloroacetic Acid (TCA) per well and incubate at 4° C. for 30-60 min, The plates are washed with H2O five times and allowed to air dry for 5 min. Addition of 50 μl 0.4% (w/v) SRB solution in 1% (v/v) acetic acid to each well and incubation for 30 min at RT completes the staining reaction. Following staining, plates are washed four times with 1% acetic acid to remove unbound dye and then allowed to air dry for 5 min. The stain is solubilized with 100 μl of 10 mM Tris pH 10.5 per well. Absorbance is read at 570 nm.
(§3) The percentage (%) of relative growth inhibition was calculated by comparing to DMSO treated only cells (100%). GI50's were determined for compounds with cytotoxic activity. The GI50 was calculated using GraphPad PRISM software (GraphPad Software, Inc., San Diego, Calif., USA).
(§4) In Table 1 below, GI50 value ranges for compound examples against breast cancer cell lines (MDA-MB-468), colon cancer cell lines (HCT116) and ovarian cancer cell lines (PA-1) are given.
In Table 2 below, GI50 value ranges for compound examples against breast cancer cell lines (MDA-MB-231), colon cancer cell lines (HCT116) and ovarian cancer cell lines (PA-1) are given.
(§5) In Table 3 below, GI50 value ranges for compound examples against breast cancer cell lines (MDA-MB-468), colon cancer cell lines (HCT116) and ovarian cancer cell lines (OVCAR-3) are given.

[2] = system: ovarian cancer cells (OVCAR-3); assay: Cancer cell line growth inhibition, Sulforhodamine B assay, OVCAR-3; type: cell-based; details: Homo sapiens, read-out: Cancer Cell Line GI50 Range OVCAR-3
Description: as §1, §2, §3, §5

[3] = target: T1, human TTK (Homo sapiens, UniProt P33981); assay: TTK inhibition assay (indirect ELISA); type: biochemical
T1 construct: Active TTK was purchased from Invitrogen as an amino terminal GST fusion of full length human TTK; purchased Invitrogen
T1 sequence (P33981 1-857): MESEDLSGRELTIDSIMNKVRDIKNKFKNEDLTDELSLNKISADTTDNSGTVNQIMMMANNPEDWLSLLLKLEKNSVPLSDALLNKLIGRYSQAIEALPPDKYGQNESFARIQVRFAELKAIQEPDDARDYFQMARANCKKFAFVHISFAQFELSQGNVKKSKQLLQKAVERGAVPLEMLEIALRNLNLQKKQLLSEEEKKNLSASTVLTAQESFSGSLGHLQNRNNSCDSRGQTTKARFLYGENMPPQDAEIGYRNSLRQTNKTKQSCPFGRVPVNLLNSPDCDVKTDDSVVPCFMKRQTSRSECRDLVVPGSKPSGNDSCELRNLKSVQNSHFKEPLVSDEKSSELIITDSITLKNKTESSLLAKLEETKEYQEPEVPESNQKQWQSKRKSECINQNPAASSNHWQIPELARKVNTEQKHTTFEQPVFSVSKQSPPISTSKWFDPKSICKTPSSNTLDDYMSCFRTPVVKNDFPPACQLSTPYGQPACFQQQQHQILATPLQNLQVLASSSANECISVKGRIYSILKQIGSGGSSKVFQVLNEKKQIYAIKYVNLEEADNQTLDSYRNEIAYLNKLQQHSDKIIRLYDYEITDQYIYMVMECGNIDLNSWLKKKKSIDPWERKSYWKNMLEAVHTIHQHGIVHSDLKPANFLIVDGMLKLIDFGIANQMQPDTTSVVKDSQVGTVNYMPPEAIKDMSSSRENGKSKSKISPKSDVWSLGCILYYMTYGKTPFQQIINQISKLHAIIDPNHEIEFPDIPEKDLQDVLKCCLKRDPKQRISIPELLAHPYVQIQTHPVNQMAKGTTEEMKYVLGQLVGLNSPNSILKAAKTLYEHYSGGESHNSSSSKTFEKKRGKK
Description: Active TTK was purchased from Invitrogen as an amino terminal GST fusion of full length human TTK.
TTK activity was measured using an indirect ELISA detection system.
Compounds were pre-incubated in the presence of enzyme for 5 minutes prior to addition of ATP and the activity remaining quantified using the above described activity assay. The % Inhibition of a compound was determined using the following formula; % Inhibition=100×(1−(experimental value−background value)/(high activity control−background value)). The IC50 value was determined using a non-linear 4 point logistic curve fit (XLfit4, IDBS) with the formula; (A+(B/(1+((x/C)^D)))), where A=background value, B=range, C=inflection point, D=curve fit parameter.

[4] = system: breast cancer cells (MDA-MB-468); assay: Cancer cell line growth inhibition, Sulforhodamine B assay, MDA-MB-468; type: cell-based; details: Homo sapiens, read-out: Cancer Cell Line GI50 Range MDA-MB-468
Description: as §1, §2, §3, §4, §5

[5] = OVCAR-3, OVCAR-3 ovarian cancer cell line
[6] = 16 μM ATP (Sigma cat# A7699), read-out: TTK IC50 Range (denoted with an asterisk)
[7] = MDA-MB-468, MDA-MB-468 breast cancer cell line
[8] = 100 μM ATP, read-out: TTK IC50 Range
[9] = OVCAR-3 ovarian cancer cell line
[10] = MDA-MB-468 breast cancer cell line

SMILES | GI50 [1] | IC50 [3, 8] | also measured
COCCNc1nc(OC2CCCC2)nc2c(-c3ccc(C(=O)NC4CC4)cc3)cnn12 [Example C8] | 100 to 500 nM |  | GI50 [2, 5]: 100 to 500 nM; IC50 [3, 6]: < 100 nM; GI50 [4, 7]: 100 to 500 nM
O=C(NC1CC1)c1ccc(-c2cnn3c(NCC4CCOCC4)nc(Nc4ccccc4)nc23)cc1Cl [Example C9] | > 500 nM |  | GI50 [2, 5]: 100 to 500 nM; IC50 [3, 6]: < 100 nM; GI50 [4, 7]: > 500 nM
CC(=O)Nc1cccc(Oc2nc(NCC3CCOCC3)n3ncc(-c4ccc(C(=O)NC5CC5)c(C)c4)c3n2)c1 [Example C19] | > 500 nM |  | GI50 [2, 5]: > 500 nM; IC50 [3, 6]: < 100 nM; GI50 [4, 7]: 100 to 500 nM
Cc1cc(-c2cnn3c(NCC4CCOCC4)nc(NC4CCCCC4)nc23)ccc1C(=O)NC1CC1 [Example C22] | 100 to 500 nM |  | GI50 [2, 5]: 100 to 500 nM; IC50 [3, 6]: < 100 nM; GI50 [4, 7]: 100 to 500 nM
Cc1cc(-c2cnn3c(NCC4CCOCC4)nc(NC4CCOCC4)nc23)ccc1C(=O)NC1CC1 [Example C23] | 100 to 500 nM |  | GI50 [2, 5]: > 500 nM; IC50 [3, 6]: < 100 nM; GI50 [4, 7]: > 500 nM
Cc1cc(-c2cnn3c(NCCN4CCOCC4)nc(Oc4cccc(F)c4)nc23)ccc1C(=O)NC1CC1 [Example C27] | ≤ 100 nM |  | GI50 [2, 5]: 100 to 500 nM; IC50 [3, 6]: < 100 nM; GI50 [4, 7]: 100 to 500 nM
Cc1cc(-c2cnn3c(NCC4CCOCC4)cc(Oc4ccc[n+]([O-])c4)nc23)ccc1C(=O)NC1CC1 [Example C30, 3-((3-(4-(cyclopropylcarbamoyl)-3-methylphenyl)-7-(((tetrahydro-2H-pyran-4-yl)methyl)amino)pyrazolo[1,5-a]pyrimidin-5-yl)oxy)pyridine-1-oxide] | > 500 nM | < 100 nM | GI50 [2, 5]: > 500 nM; GI50 [4, 7]: > 500 nM
O=C(NC1CC1)c1ccc(-c2cnn3c(NCCN4CCOCC4)cc(Oc4cccc(F)c4F)nc23)cc1Cl [Example C33, 2-chloro-N-cyclopropyl-4-(5-(2,3-difluorophenoxy)-7-((2-morpholinoethyl)amino)pyrazolo[1,5-a]pyrimidin-3-yl)benzamide] | ≤ 100 nM | < 100 nM | GI50 [2, 5]: ≤ 100 nM; GI50 [4, 7]: ≤ 100 nM
Cc1cc(-c2cnn3c(NC[C@H]4C[C@@](C)(O)C4)cc(Oc4cccnc4)nc23)ccc1C(=O)NC1CC1 [Example C43, N-cyclopropyl-4-(7-((((1s,3s)-3-hydroxy-3-methylcyclobutyl)methyl)amino)-5-(pyridin-3-yloxy)pyrazolo[1,5-a]pyrimidin-3-yl)-2-methylbenzamide] | ≤ 100 nM |  | GI50 [2, 9]: ≤ 100 nM; GI50 [4, 10]: ≤ 100 nM
Cc1cc(-c2cnn3c(NCC4CCOCC4)cc(NC4COC4)nc23)ccc1C(=O)NC1CC1 [Example C102] |  | < 100 nM | 
Cc1cc(-c2cnn3c(NCC4(N(C)C)CCOCC4)cc(Oc4ccccc4)nc23)ccc1C(=O)NC1CC1 [Example C106] |  | 100 to 500 nM | 
Cc1cc(-c2cnn3c(NCC4CCOCC4)cc(NC(CO)CO)nc23)ccc1C(=O)NC1CC1 [Example C110] |  | < 100 nM | 
Cc1cc(-c2cnn3c(NCC4CCOCC4)cc(N4C5CCC4COC5)nc23)ccc1C(=O)NC1CC1 [Example C112] |  | < 100 nM | 
Cc1cc(-c2cnn3c(NCC4CCOCC4)cc(OC4CCN(C5COC5)CC4)nc23)ccc1C(=O)NC1CC1 [Example C115] |  | < 100 nM | 
Cc1cc(-c2cnn3c(NCC4CCOCC4)cc(OCCN4CCOCC4)nc23)ccc1C(=O)NC1CC1 [Example C117] |  | < 100 nM | 
CC[C@H](Nc1cc(NCCN2CCOCC2)n2ncc(-c3ccc(C(=O)NC4CC4)c(C)c3)c2n1)[C@H](C)O [Example C119] |  | < 100 nM | 
Cc1cc(-c2cnn3c(NCC4CCOCC4)cc(NC4CCN(C5COC5)CC4)nc23)ccc1C(=O)NC1CC1 [Example C122] |  | < 100 nM | 

SMILES | GI50 [1] | IC50 [3, 8] | also measured
COC(C)(C)CNc1cc(N[C@@H](C(C)C)C(C)(C)O)nc2c(-c3ccc(C(=O)NC4CC4)c(C)c3)cnn12 [Example C128] |  | < 100 nM | 
COC(C)(C)CNc1cc(N[C@H]2CCC[C@H]2O)nc2c(-c3ccc(C(=O)NC4CC4)c(C)c3)cnn12 [Example C129] |  | < 100 nM | 
Cc1cc(-c2cnn3c(NC[C@H]4C[C@](C)(O)C4)cc(Oc4cccnc4)nc23)ccc1C(=O)NC1CC1 [Example C135] | ≤ 100 nM |  | GI50 [2, 9]: 100 to 500 nM; GI50 [4, 10]: ≤ 100 nM
Cc1cc(-c2cnn3c(NCCN4CCOCC4)cc(O[C@@H]4CCOC4)nc23)ccc1C(=O)NC1CC1 [Example C137] |  | < 100 nM | 
Cc1cc(-c2cnn3c(NCCCS(C)(=O)=O)cc(NC4CCOCC4)nc23)ccc1C(=O)NC1CC1 [Example C140] |  | < 100 nM | 
Cc1cc(-c2cnn3c(NCC4CCOCC4)cc(N4CC[C@@H](O)C4)nc23)ccc1C(=O)NC1CC1 [Example C142] |  | 100 to 500 nM | 
Cc1cc(-c2cnn3c(NCC(C)C)cc(Oc4ccncc4)nc23)ccc1C(=O)NC1CC1 [Example C149] |  | 100 to 500 nM | 
Cc1cc(-c2cnn3c(NCC(C)C)cc(-c4cccc5ncccc45)nc23)ccc1C(=O)NC1CC1 [Example C154] |  | 100 to 500 nM | 
CC(C)CNc1cc(-c2cccc3ncccc23)nc2c(-c3ccc(C(=O)NC4CC4)cc3)cnn12 [Example C155] |  | > 500 nM | 
Cc1cc(-c2cnn3c(NCC(C)C)cc(Nc4cccnc4)nc23)ccc1C(=O)NC1CC1 [Example C160] |  | < 100 nM | 
Cc1cc(-c2cnn3c(NCC4CCOCC4)cc(N4CC5(CC(O)C5)C4)nc23)ccc1C(=O)NC1CC1 [Example C162] |  | < 100 nM | 
Cc1cc(-c2cnn3c(NCC4CCOCC4)cc(N4CC[C@H](CO)C4)nc23)ccc1C(=O)NC1CC1 [Example C166] |  | < 100 nM | 
Cc1cc(-c2cnn3c(NCC4CCOCC4)cc(N4CC[C@@H](CO)C4)nc23)ccc1C(=O)NC1CC1 [Example C167] |  | < 100 nM | 
Cc1cc(-c2cnn3c(NCCN4CCC(O)CC4)cc(NC4CCCC4)nc23)ccc1C(=O)NC1CC1 [Example C168] |  | < 100 nM | 
Cc1cc(-c2cnn3c(NCCN4CCC(F)(F)CC4)cc(NC4CCCC4)nc23)ccc1C(=O)NC1CC1 [Example C184] |  | < 100 nM | 
Cc1cc(-c2cnn3c(NCCN4CCC(F)(F)CC4)cc(Oc4cnn(C)c4)nc23)ccc1C(=O)NC1CC1 [Example C185] |  | < 100 nM | 
